Assay results from paper PMC10202051, “Molecular basis of differential HLA class I-restricted T cell recognition of a highly networked HIV peptide” (Nature Communications, 2023).

Tested on: autologous B cells lysed by CTL Clone 3
Experiment: Chromium release assay with QW9-B53 specific CTL clone C3
Type: cell-based, human
Details: effector/target 1:1, technical replicate

Sequence: QATQEVKNW [QW9_S3T]
- lysis of autologous B cells (experiment-1): 6.79
- lysis of autologous B cells (experiment-2): 6.64
- lysis of autologous B cells (experiment-3): 6.63
- lysis of autologous B cells (experiment-4): 6.38
- lysis of autologous B cells (experiment-5): 6.72
- lysis of autologous B cells (experiment-6): 7.02
- lysis of autologous B cells (experiment-7): 6.68
- lysis of autologous B cells (experiment-8): 6.3
